Where two headings read alike, the source gives them in different places.
Tests used:
Male CD-1 mice = assay: Postoperative inflammatory ileus, upper gastrointestinal transit (FITC-dextran, Geometric Center); type: in vivo; settings: Surgical Manipulation, 24 hr post-laparotomy, mean ± SE, scale 1 to 15
Method: Male CD-1 mice were anesthetized by inhaled isoflurane and prepared for surgery. The abdomen was shaved of hair and treated with antiseptic solution. The animal was then covered with a surgical drape, leaving the abdomen exposed. A mid-line laparotomy was performed, and the entire small intestine was exteriorized onto the sterile drape. Using two moistened, sterile, cotton-tipped applicators, the small intestine was then gently compressed along its length from the ligament of Treitz to the ileo-cecal junction. The small intestine was then returned to the abdominal cavity and the incision closed by two layers of sutures.
Age-matched mice were randomly assigned to groups (6 animals per group) and injected intraperitoneally (i.p.) with “vehicle” (a mixture of 5% ethanol/5% Tween80/90% of 5% dextran in water w/v) containing various doses of a test compound 1 hr prior to laparotomy. The second group was injected intraperitoneally with vehicle. The third group was administered intragastrically (1 mg/kg) a mixture (1 mg/mL) of dexamethasone in 20% hydroxypropyl methyl dextran in water, once per day for two days prior to surgery and 5 hrs post-laparotomy. The fourth group received no intervention and served as naïve controls.
Upper gastrointestinal transit was measured 24 hr post-laparotomy. Mice were fed a test meal consisting of 150 μL of FITC-dextran solution (5 mg/mL of 70,000 molecular weight dextran conjugated to fluorescein-isothiocyanate in 0.5% hydroxypropyl methylcellulose/deionized water) administered intragastrically by an 18 gauge feeding tube. Following oral administration of the FITC-dextran test meal, animals were returned to their home cages. Following a 45 min test period, mice were euthanized by isoflurane overdose and exsanguination. The entire gastrointestinal tract from the lower esophageal sphincter to the terminal colon was removed. The bowel segments were opened along the mesenteric border. The tissue and luminal contents of the stomach, 10 equal segments of small intestine, the cecum, and 3 equal segments of colon were placed in individual Eppendorf tubes containing 1 ml of PBS. The tissue was vigorously mixed on a tabletop vortex, and solid materials were pelletized by centrifugation. Aliquots of the cleared supernatant were read in duplicate on a 96-well fluorescence plate reader to quantify the magnitude of the fluorescent signal in each segment of bowel.
These values were used to calculate the Geometric Center (REF), which is defined as the weighted average distribution of the fluorescent signal along the gastrointestinal tract: GC=Σ(% of total fluorescent signal per segment×segment number)/100,
Higher GC values represent faster rates of transit on scale of 1 to 15.
Surgical manipulation of the small bowel leads to a significant delay in gastrointestinal transit, going from a Geometric Center of 8.4 in normal mice to 3.3 in vehicle treated animals.

CB1 receptor = biological target: T1, CB1 receptor (Homo sapiens, UniProt P21554); assay: Binding assay for CB1 agonists or inverse agonists (SK-N-MC membranes, [3H]-CP-55,940); settings: for inhibition at 0.2 µM: read-out: CB1 receptor binding percent inhibition, test concentration 0.2 μM (footnote 2)
T1 construct: expressed in transfected cells
T1 sequence (P21554 whole entry): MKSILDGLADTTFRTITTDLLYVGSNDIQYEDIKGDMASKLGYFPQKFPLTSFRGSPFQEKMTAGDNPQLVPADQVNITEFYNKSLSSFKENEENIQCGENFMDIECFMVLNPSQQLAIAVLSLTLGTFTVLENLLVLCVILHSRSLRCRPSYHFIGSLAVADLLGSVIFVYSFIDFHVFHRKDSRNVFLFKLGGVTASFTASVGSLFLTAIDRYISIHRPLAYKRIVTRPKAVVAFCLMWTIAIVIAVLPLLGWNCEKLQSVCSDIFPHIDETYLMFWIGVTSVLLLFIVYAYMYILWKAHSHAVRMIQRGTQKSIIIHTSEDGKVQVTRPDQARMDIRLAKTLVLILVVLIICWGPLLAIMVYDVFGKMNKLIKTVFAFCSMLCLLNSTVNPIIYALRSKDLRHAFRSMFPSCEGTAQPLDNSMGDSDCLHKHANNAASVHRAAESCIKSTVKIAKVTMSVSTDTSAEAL
Outline: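 Membranes from SK-N-MC cells stably expressing human CB1 incubated with compound and [3H]-CP-55,940 ([…]) for 90 min at 30° C in Tris-HCl pH 7.5, MgCl2, EDTA, fatty-acid-free BSA. Non-specific binding defined with 10 uM WIN 55,212; filtration, scintillation count; IC50 by linear regression.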

CB2 receptor = biological target: T2, CB2 receptor (Homo sapiens, UniProt P34972); assay: Modified binding assay, CB2 receptor in CHO cells, [3H]WIN 55212; settings: [3H]WIN 55212 0.8 nM, 120 minutes at 37° C.
T2 construct: expressed in transfected cells
T2 sequence (P34972 whole entry): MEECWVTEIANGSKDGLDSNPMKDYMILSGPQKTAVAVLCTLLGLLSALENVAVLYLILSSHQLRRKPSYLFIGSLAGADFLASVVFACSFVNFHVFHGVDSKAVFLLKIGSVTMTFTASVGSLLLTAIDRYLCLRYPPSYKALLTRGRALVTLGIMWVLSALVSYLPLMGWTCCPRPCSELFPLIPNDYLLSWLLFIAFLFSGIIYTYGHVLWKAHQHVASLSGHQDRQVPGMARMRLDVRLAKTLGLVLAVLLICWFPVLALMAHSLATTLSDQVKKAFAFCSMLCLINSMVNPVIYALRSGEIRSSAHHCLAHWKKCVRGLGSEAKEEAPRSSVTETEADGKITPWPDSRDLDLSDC
Method: Additional receptor binding studies were performed with minor modifications as detailed below.
The human CB1 and CB2 receptors were stably expressed in CHO cells as described in Rinaldi-Carmona, M., Calandra, B., Shire, D., Bouaboula, M., Oustric, D., Barth, F., Casellas, P., Ferrara, P. and Le Fur, G. (1996) J. PharmacoL Exp. Ther., 278: 871-878 and Munro, S., Thomas, K. L. and Abu-Shaar, M. (1993) Nature, 365: 61-65, respectively. [^3H]CP 55940 (0.5 nM) was used as the radioligand for the CB1 receptor binding assay. [^3H]WIN 55212 (0.8 nM) was used as the radioligand for the CB2 receptor binding assay. Incubation was carried out for 120 minutes at 37° C.
The specific ligand binding to the receptors is defined as the difference between the total binding and the nonspecific binding determined in the presence of an excess of unlabelled ligand. The results are expressed as a percent of control specific binding ((measured specific binding/control specific binding)×100) obtained in the presence of the test compounds.
The IC50 values (concentration causing a half-maximal inhibition of control specific binding) were determined by non-linear regression analysis of the competition curves generated with mean replicate values using Hill equation curve fitting (where Y=specific binding, D=minimum specific binding, A=maximum specific binding, C=compound concentration, C50=IC50 and nH=slope factor): (Y=D+[(A−D)/(1+(C/C50)^nH)] CB1 and CB2 Receptor Binding Results
For compounds tested, an IC50 binding value was obtained from percent inhibition studies in which various test concentrations were used.

[1] = Cannabinoid CB1 Receptor Binding IC50, calculated by linear regression from percent inhibition at various test concentrations

| SMILES | Geometric Center (upper gastrointestinal transit) (Male CD-1 mice; dose 10 mg/kg) | Geometric Center (upper gastrointestinal transit) (Male CD-1 mice; dose 30 mg/kg) | IC50 (CB1 receptor; [1]) [nM] | inhibition at 0.2 µM (CB1 receptor) [%] | Geometric Center (upper gastrointestinal transit) (Male CD-1 mice; dose 1 mg/kg) | Geometric Center (upper gastrointestinal transit) (Male CD-1 mice; dose 3 mg/kg) | IC50 (CB2 receptor) [nM] | IC50 (CB1 receptor; read-out: Cannabinoid CB1 Receptor Binding IC50, calculated by linear regression from percent inhibition at various test concentrations) [nM] |
| --- | --- | --- | --- | --- | --- | --- | --- | --- |
| C[C@H](NS(=O)(=O)/C=C/c1n[nH]c2c1CCCCC2Cc1cccc(F)c1)c1ccccc1 (single isomer, unassigned) [Cpd 232, (2E)-2-[(8R*)-8-(3-fluoro-benzyl)-1,4,5,6,7,8-hexahydro-cycloheptapyrazol-3-yl]-ethenesulfonic acid [(1S)-1-phenyl-ethyl]-amide] | 4.0 ± 0.59 | 5.6 ± 0.16 | 300 | 0 |  |  |  |  |
| C[C@H](NS(=O)(=O)/C=C/c1n[nH]c2c1CCCC/C2=C\c1ccc(Cl)cc1)c1ccccc1 [Cpd 237, (2E,8E)-2-[8-(4-chloro-benzylidene)-1,4,5,6,7,8-hexahydro-cycloheptapyrazol-3-yl]-ethenesulfonic acid [(1S)-1-phenyl-ethyl]-amide] | 4.7 ± 0.40 | 5.6 ± 0.76 | 300 | 0 | 3.8 ± 0.40 | 3.6 ± 0.53 | 690 |  |
| O=C(N[C@H](CO)c1ccccc1)c1n[nH]c2c1CCCCC2Cc1cccc(Cl)c1 (single isomer, unassigned) [Cpd 231, (8S*)-8-(3-chloro-benzyl)-1,4,5,6,7,8-hexahydro-cycloheptapyrazole-3-carboxylic acid [(1S)-2-hydroxy-1-phenyl-ethyl]-amide] |  |  |  |  |  |  | 1800 | 300 |
| O=C(N[C@H](CO)c1ccccc1)c1n[nH]c2c1CCCCC2Cc1cccc(Cl)c1 (single isomer, unassigned) [Cpd 230, (8R*)-8-(3-chloro-benzyl)-1,4,5,6,7,8-hexahydro-cycloheptapyrazole-3-carboxylic acid [(1S)-2-hydroxy-1-phenyl-ethyl]-amide] |  |  | 300 |  |  |  | 92 |  |

Source: patent publication US8378117B2 (priority 2005, dated 2013)
